Measurements taken from patent publication US10562914B2, “Imidazoles as histone demethylase inhibitors” (Istituto Europeo di Oncologia S.r.l., priority 2016, dated 2020).
Where a name gives a salt, the structure may show the parent alone.

Legend:
human leukemia NB4 cells = test: Cell growth, CellTiter-Fluor viability assay, NB4; format: cell-based; details: NB-4, 48 h incubation, read-out: IC50 against human leukemia NB4 cells
Text: CellTiter-Flor® (Promega) is as a nonlytic, single-reagent-addition fluorescence assay that measures the relative number of living cells in a culture population after experimental manipulation. The CellTiter-Fluor™ Cell Viability Assay measures the conserved and constitutive protease activity within live cells and therefore acts as a marker for cell viability.
Human leukemia MV4-11 cells, (obtained from the Deutsche Sammlung von Mikroorganismen und Zellkulturen, ACC 102) or NB4 cells, (obtained from the Deutsche Sammlung von Mikroorganismen und Zellkulturen) in exponential growth, were incubated for 48 h with different concentrations of the inhibitors. After 48 h a volume of CellTiter-Fluor® Reagent equal to one fifth of volume of cell culture medium was added. The content was mixed and incubates for at least 90 min at 37° C. degree to obtain a stable signal. The fluorescence was recorded using an excitation wavelength of 360 nm and an emission at 535 nm. The IC50 was calculated using GraphPad Software.

[1] = target: T1, human recombinant KDM1A/CoREST protein (Homo sapiens, UniProt O60341); test: Assay of enzyme inhibition of KDM1A (LSD1), TR-FRET; format: biochemical; details: 0.25 nM KDM1A/CoREST, 50 nM H3K4 monomethylated peptide, 20 min at RT
T1 construct: made in house; host or cells: E. coli
Description: 2.1 Assay of Enzyme Inhibition of KDM1A (LSD1)
The intensity of the light emission is proportional to the level of biotinylated reaction product. The complex of human recombinant KDM1A/CoREST protein was produced in E. coli as separate proteins and co-purified as previously described.
Demethylase reaction was started by the addition of 50 nM histone H3K4 monomethylated.
The resulting mixture was incubated in the dark for 1 h at RT. Then, TR-FRET signal was read by a fluorimeter (Infinite® F200, Tecan, Männedorf, Swirzerland) (Excitation 320 nm, Emission 665 nm and 620 nm, delay time 50 μs, window time 100 μs).
The inhibitor concentrations ranged from 0.025 to 500 μM (serial 1:3 dilutions). The IC50 was calculated using GraphPad Software.

| Structure (SMILES) | IC50 (human leukemia NB4 cells) | IC50 [1] |
| --- | --- | --- |
| CCc1cnc(-c2cc3sccc3n2C)n1CCCc1ccc(OCC2CCNCC2)c(OCC2CCNCC2)c1 [Example 57, 5-[1-[3-[3,4-bis(4-piperidylmethoxy)phenyl]propyl]-5-ethyl-imidazol-2-yl]-4-methyl-thieno[3,2-b]pyrrole dihydrochloride] | < 10 µM | < 100 nM |
| CCc1cn(CCCc2ccc(OCC3CCNCC3)cc2)c(-c2cc3sccc3n2C)n1 [Example 42, 5-[4-ethyl-1-[3-[4-(4-piperidylmethoxy)phenyl]propyl]imidazol-2-yl]-4-methyl-thieno[3,2-b]pyrrole hydrochloride] | < 10 µM |  |
| CCc1cn(CCOc2cccc(OC3CCCNCC3)c2)c(-c2cc3sccc3n2C)n1 (centres unmarked) [Example 34, 5-[1-[2-[3-(azepan-4-yloxy)phenoxy]ethyl]-4-ethyl-imidazol-2-yl]-4-methyl-thieno[3,2-b]pyrrole hydrochloride] |  | < 100 nM |
| CCc1cn(CCCc2ccc(OCC3CCNCC3)c(OCC3CCNCC3)c2)c(-c2cc3sccc3n2C)n1 [Example 52, 5-[1-[3-[3,4-bis(4-piperidylmethoxy)phenyl]propyl]-4-ethyl-imidazol-2-yl]-4-methyl-thieno[3,2-b]pyrrole dihydrochloride] |  | < 100 nM |
| CCc1cn(CCOc2ccc(OC3CCNCC3)cc2)c(-c2cc3ccsc3n2C)n1 [Example 39, 5-[4-ethyl-1-[2-[4-(4-piperidyloxy)phenoxy]ethyl]imidazol-2-yl]-6-methyl-thieno[2,3-b]pyrrole] | < 10 µM | < 100 nM |
| CCCc1nc(-c2cc3sccc3n2C)n(CCOc2ccc(OC3CCNCC3)cc2)c1-c1ccccc1 [Example 40, 4-methyl-5-[5-phenyl-1-[2-[4-(4-piperidyloxy)phenoxy]ethyl]-4-propyl-imidazol-2-yl]thieno[3,2-b]pyrrole hydrochloride] | < 10 µM | < 100 nM |
| CCc1[nH]c(-c2cc3sccc3n2C)nc1-c1ccccc1 [Example 9, 5-(5-ethyl-4-phenyl-1H-imidazol-2-yl)-4-methyl-thieno[3,2-b]pyrrole] |  | < 1000 nM |
| CCc1cn(CCCc2ccc(OC3CCCNCC3)cc2)c(-c2cc3sccc3n2C)n1 (centres unmarked) [Example 44, 5-[1-[3-[4-(azepan-4-yloxy)phenyl]propyl]-4-ethyl-imidazol-2-yl]-4-methyl-thieno[3,2-b]pyrrole hydrochloride] | < 10 µM |  |
| CC(C)c1nc(-c2cc3sccc3n2C)n(CCOc2ccc(OC3CCNCC3)cc2)c1-c1ccccc1 [Example 48, 5-[4-isopropyl-5-phenyl-1-[2-[4-(4-piperidyloxy)phenoxy]ethyl]imidazol-2-yl]-4-methyl-thieno[3,2-b]pyrrole] | < 10 µM | < 100 nM |
| CCn1c(-c2nc(C3CCC3)c[nH]2)cc2sccc21 [Example 12, 5-(4-cyclobutyl-1H-imidazol-2-yl)-4-ethyl-thieno[3,2-b]pyrrole] |  | < 1000 nM |
| CC(C)c1[nH]c(-c2cc3sccc3n2C)nc1-c1ccccc1 [Example 10, 5-(5-isopropyl-4-phenyl-1H-imidazol-2-yl)-4-methyl-thieno[3,2-b]pyrrole] |  | < 1000 nM |
| CCCc1c(-c2ccccc2)nc(-c2cc3sccc3n2C)n1CCOc1ccc(OC2CCNCC2)cc1 [Example 41, 4-methyl-5-[4-phenyl-1-[2-[4-(4-piperidyloxy)phenoxy]ethyl]-5-propyl-imidazol-2-yl]thieno[3,2-b]pyrrole] | < 10 µM | < 100 nM |
| Cn1c(-c2nc(C3CCC3)cn2CCCc2ccc(OC3CCNCC3)cc2)cc2sccc21 [Example 49, 5-[4-cyclobutyl-1-[3-[4-(4-piperidyloxy)phenyl]propyl]imidazol-2-yl]-4-methyl-thieno[3,2-b]pyrrole hydrochloride] | < 10 µM |  |

Now from value to compound:

| IC50 (human leukemia NB4 cells) | IC50 [1] | Structure (SMILES) |
| --- | --- | --- |
| < 10 µM | < 100 nM | Cn1c(-c2ncc(C3CCC3)n2CCCc2ccc(OC3CCNCC3)cc2)cc2sccc21 [Example 50, 5-[5-cyclobutyl-1-[3-[4-(4-piperidyloxy)phenyl]propyl]imidazol-2-yl]-4-methyl-thieno[3,2-b]pyrrole] |
| < 10 µM | < 100 nM | CCc1c(-c2ccccc2)nc(-c2cc3sccc3n2C)n1CCCc1ccc(OC2CCNCC2)cc1 [Example 46, 5-[5-ethyl-4-phenyl-1-[3-[4-(4-piperidyloxy)phenyl]propyl]imidazol-2-yl]-4-methyl-thieno[3,2-b]pyrrole hydrochloride] |
|  | < 100 nM | Cn1c(-c2nc(-c3ccccc3)cn2CCCc2ccc(OC3CCNCC3)cc2)cc2sccc21 [Example 51, 4-methyl-5-[4-phenyl-1-[3-[4-(4-piperidyloxy)phenyl]propyl]imidazol-2-yl]thieno[3,2-b]pyrrole hydrochloride] |
| < 10 µM | < 100 nM | CCc1cnc(-c2cc3sccc3n2C)n1CCCc1ccc(OCC2CCNCC2)cc1 [Example 43, 5-[5-ethyl-1-[3-[4-(4-piperidylmethoxy)phenyl]propyl]imidazol-2-yl]-4-methyl-thieno[3,2-b]pyrrole] |
|  | < 100 nM | Cn1c(-c2ncc(C3CCC3)n2CCCc2ccc(OCC3CCNC3)cc2)cc2sccc21 (centres unmarked) [Example 60, 5-[5-cyclobutyl-1-[3-[4-(pyrrolidin-3-ylmethoxy)phenyl]propyl]imidazol-2-yl]-4-methyl-thieno[3,2-b]pyrrole] |
|  | < 100 nM | Cn1c(-c2ncc(C3CCC3)n2CCCc2ccc(OC3CCCNCC3)cc2)cc2sccc21 (centres unmarked) [Example 62, 5-[1-[3-[4-(azepan-4-yloxy)phenyl]propyl]-5-cyclobutyl-imidazol-2-yl]-4-methyl-thieno[3,2-b]pyrrole hydrochloride] |
| < 10 µM | < 100 nM | CCc1cnc(-c2cc3sccc3n2C)n1CCCc1ccc(OC2CCCNCC2)cc1 (centres unmarked) [Example 45, 5-[1-[3-[4-(azepan-4-yloxy)phenyl]propyl]-5-ethyl-imidazol-2-yl]-4-methyl-thieno[3,2-b]pyrrole hydrochloride] |
|  | < 100 nM | Cn1c(-c2ncc(C3CCC3)n2CCOc2ccc(OC3CCCNCC3)cc2)cc2sccc21 (centres unmarked) [Example 37, 5-[1-[2-[4-(azepan-4-yloxy)phenoxy]ethyl]-5-cyclobutyl-imidazol-2-yl]-4-methyl-thieno[3,2-b]pyrrole] |
|  | < 100 nM | CCCc1cnc(-c2cc3sccc3n2C)n1CCOc1ccc(OC2CCNCC2)cc1 [Example 54, 4-methyl-5-[1-[2-[4-(4-piperidyloxy)phenoxy]ethyl]-5-propyl-imidazol-2-yl]thieno[3,2-b]pyrrole] |
| < 10 µM | < 100 nM | CCc1nc(-c2cc3sccc3n2C)n(CCCc2ccc(OC3CCNCC3)cc2)c1-c1ccccc1 [Example 47, 5-[4-ethyl-5-phenyl-1-[3-[4-(4-piperidyloxy)phenyl]propyl]imidazol-2-yl]-4-methyl-thieno[3,2-b]pyrrole hydrochloride] |
|  | < 100 nM | CCc1cnc(-c2cc3sccc3n2C)n1CCOc1cccc(OC2CCCNCC2)c1 (centres unmarked) [Example 35, 5-[1-[2-[3-(azepan-4-yloxy)phenoxy]ethyl]-5-ethyl-imidazol-2-yl]-4-methyl-thieno[3,2-b]pyrrole hydrochloride] |
|  | < 100 nM | CCc1cn(CCc2ccc(OC3CCNCC3)cc2)c(-c2cc3sccc3n2C)n1 [Example 58, 5-[4-ethyl-1-[2-[4-(4-piperidyloxy)phenyl]ethyl]imidazol-2-yl]-4-methyl-thieno[3,2-b]pyrrole] |
